From the supplement of paper PMC4862054
Values joined by “and” are separate entries in the source; they are usually repeats but may differ in a detail not shown here. Equal values may be shown once.

Key:
CAL-120 [1] = experiment: normalised viability (% of control), CellTiter-Blue; higher = more viable cells (about 100 = DMSO control); conditions: 10 nM; incubation time: 72 h
Summary of the method: (§1)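 Compound dissolved in 5 µl medium was pre-loaded into 384-well plates, and breast cancer cell lines in 20 µl suspension were seeded on top and incubated 72 h. After adding 2.5 µl CellTiter-Blue reagent for 2 h at 37 °C, fluorescence was read at 560/590 nm. Plates were normalised to vehicle (100) and a positive kill control (0), with Z'-factor quality control. Each value is normalised viability at a single listed concentration from the series.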

DU-4475 [2] = experiment: as above; conditions: 1 nM; incubation time: 72 h
Summary of the method: as §1

MDA-MB-453 [3] = experiment: as above; conditions: 1 nM; incubation time: 72 h
Summary of the method: as §1

BT-474 = experiment: as above; conditions: incubation time: 72 h
Summary of the method: as §1

BT-549 = experiment: as above; conditions: incubation time: 72 h
Summary of the method: as §1

CAL-120 [4] = experiment: as above; conditions: incubation time: 72 h
Summary of the method: as §1

CAL-148 = experiment: as above; conditions: incubation time: 72 h
Summary of the method: as §1

CAL-51 [5] = experiment: as above; conditions: incubation time: 72 h
Summary of the method: as §1

CAL-85-1 = experiment: as above; conditions: incubation time: 72 h
Summary of the method: as §1

DU-4475 [6] = experiment: as above; conditions: incubation time: 72 h
Summary of the method: as §1

HCC1143 [7] = experiment: as above; conditions: incubation time: 72 h
Summary of the method: as §1

HCC1599 = experiment: as above; conditions: incubation time: 72 h
Summary of the method: as §1

HCC1937 = experiment: as above; conditions: incubation time: 72 h
Summary of the method: as §1

HDQ-P1 = experiment: as above; conditions: incubation time: 72 h
Summary of the method: as §1

Hs578T = experiment: as above; conditions: incubation time: 72 h
Summary of the method: as §1

MDA-MB-231 = experiment: as above; conditions: incubation time: 72 h
Summary of the method: as §1

MDA-MB-436 = experiment: as above; conditions: incubation time: 72 h
Summary of the method: as §1

MDA-MB-453 [8] = experiment: as above; conditions: incubation time: 72 h
Summary of the method: as §1

MDA-MB-468 = experiment: as above; conditions: incubation time: 72 h
Summary of the method: as §1

MFM-223 = experiment: as above; conditions: incubation time: 72 h
Summary of the method: as §1

SK-BR-3 = experiment: as above; conditions: incubation time: 72 h
Summary of the method: as §1

CAL-51 [9] = experiment: drug sensitivity score (DSS), CellTox Green (DSS (AUC-based score)); higher = stronger drug effect (viability inhibition or cytotoxicity); extreme values may be limits of the assay; conditions: incubation time: 72 h
Summary of the method: (§2)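 The drug sensitivity score reflects the area under a fitted dose-response curve. To obtain it, breast cancer cells in 20 µl suspension were seeded into 384-well plates containing compound at 5 concentrations, 10-fold apart over a compound-specific 10,000-fold range, and incubated 72 h. CellTox Green fluorescence (485/520 nm) was read first and CellTiter-Glo luminescence second, after 10 min at room temperature. Each plate was normalised to 0.1 % DMSO and a positive kill control.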

HCC1143 [10] = experiment: as above; conditions: incubation time: 72 h
Summary of the method: as §2

MDA-MB-453 [11] = experiment: as above; conditions: incubation time: 72 h
Summary of the method: as §2

CNC(=O)c1cc(Oc2ccc(NC(=O)Nc3ccc(Cl)c(C(F)(F)F)c3)cc2)ccn1 [Sorafenib]
Conditions | drug sensitivity score | normalised viability
CAL-51 [9] | 0 | –
CAL-120 [1] | – | 102% and 96%
DU-4475 [2] | – | 118% and 131%
HCC1143 [10] | 0 | –
MDA-MB-453 [3] | – | 103% and 109%
MDA-MB-453 [11] | 0 | –

Conditions | normalised viability
BT-474, 1000 nM | 130% and 106%
BT-549, 1 nM | 83.7% and 97.1%
BT-549, 100 nM | 99.5% and 82.8%
BT-549, 1000 nM | 94.5% and 80.4%
CAL-51 [5], 0.3 nM | 112% and 107%
CAL-51 [5], 3 nM | 108% and 99.3%
CAL-51 [5], 10 nM | 98.3% and 96.8%
CAL-85-1, 0.3 nM | 98.3% and 99.7%
CAL-85-1, 3 nM | 104% and 98.8%
CAL-85-1, 10 nM | 105% and 108%
CAL-120 [4], 1 nM | 106% and 91.3%
CAL-120 [4], 100 nM | 101% and 90.5%
CAL-120 [4], 1000 nM | 96.5% and 89%
CAL-148, 0.3 nM | 101% and 88%
CAL-148, 3 nM | 99.3% and 91.5%
CAL-148, 10 nM | 102% and 87.5%
DU-4475 [6], 0.3 nM | 94.3% and 109%
DU-4475 [6], 3 nM | 101% and 95.7%
HCC1143 [7], 1 nM | 99% and 84.3%
HCC1143 [7], 100 nM | 105% and 85.9%
HCC1143 [7], 1000 nM | 96.1% and 91.6%
HCC1599, 100 nM | 115% and 126%
HCC1599, 1000 nM | 100% and 112%
HCC1937, 100 nM | 106% and 100%
HCC1937, 1000 nM | 82.3% and 82.8%
HDQ-P1, 0.3 nM | 107% and 97.1%
HDQ-P1, 3 nM | 98.5% and 88.8%
Hs578T, 1 nM | 126% and 102%
Hs578T, 100 nM | 109% and 123%
Hs578T, 1000 nM | 101% and 87.8%
MDA-MB-231, 1 nM | 103% and 90.2%
MDA-MB-231, 100 nM | 88.7% and 96.2%
MDA-MB-231, 1000 nM | 84.8% and 63.9%
MDA-MB-436, 1 nM | 92.8% and 87%
MDA-MB-436, 100 nM | 103% and 80.7%
MDA-MB-436, 1000 nM | 91% and 88.2%
MDA-MB-453 [8], 0.3 nM | 122% and 105%
MDA-MB-453 [8], 3 nM | 97.2% and 99.1%
MDA-MB-453 [8], 10 nM | 96.8% and 102%
MDA-MB-468, 1 nM | 115% and 93.2%
MDA-MB-468, 1000 nM | 102% and 112%
MFM-223, 1 nM | 94.9% and 108%
MFM-223, 100 nM | 96.7% and 103%
MFM-223, 1000 nM | 48.2% and 67.9%
SK-BR-3, 1 nM | 112% and 89.3%
SK-BR-3, 100 nM | 107% and 102%
SK-BR-3, 1000 nM | 110% and 108%

CCN(CC)CCNC(=O)c1c(C)[nH]c(/C=C2\C(=O)Nc3ccc(F)cc32)c1C [Sunitinib]
Conditions | drug sensitivity score | normalised viability
CAL-51 [9] | 0 | –
CAL-120 [1] | – | 91.8% and 108%
DU-4475 [2] | – | 104% and 92%
HCC1143 [10] | 0 | –
MDA-MB-453 [3] | – | 89.4% and 98.1%
MDA-MB-453 [11] | 0 | –

Conditions | normalised viability
BT-474, 1 nM | 110% and 97.1%
BT-474, 100 nM | 115% and 92.5%
BT-549, 1 nM | 90.8% and 103%
BT-549, 100 nM | 92.6% and 88.2%
BT-549, 1000 nM | 89.9% and 111%
CAL-51 [5], 0.3 nM | 116% and 93.3%
CAL-51 [5], 10 nM | 107% and 91.1%
CAL-85-1, 0.3 nM | 92% and 101%
CAL-85-1, 3 nM | 90.5% and 104%
CAL-85-1, 10 nM | 98.1% and 98.9%
CAL-120 [4], 1000 nM | 88.6% and 104%
CAL-148, 0.3 nM | 92.3% and 103%
CAL-148, 3 nM | 90.1% and 97.4%
CAL-148, 10 nM | 89.6% and 111%
DU-4475 [6], 0.3 nM | 99.7% and 88.2%
DU-4475 [6], 3 nM | 92.5% and 88.1%
DU-4475 [6], 10 nM | 108% and 95.7%
HCC1143 [7], 100 nM | 84.3% and 106%
HCC1599, 1 nM | 113% and 97.3%
HCC1599, 100 nM | 85.4% and 102%
HCC1599, 1000 nM | 101% and 90.8%
HCC1937, 1 nM | 93.7% and 84.2%
HCC1937, 100 nM | 82.3% and 102%
HCC1937, 1000 nM | 84.5% and 93.2%
HDQ-P1, 0.3 nM | 101% and 95.9%
HDQ-P1, 3 nM | 85.3% and 98.3%
Hs578T, 1 nM | 106% and 100%
Hs578T, 100 nM | 103% and 113%
Hs578T, 1000 nM | 108% and 107%
MDA-MB-231, 1 nM | 90.4% and 86.8%
MDA-MB-231, 100 nM | 89% and 90.3%
MDA-MB-231, 1000 nM | 114% and 112%
MDA-MB-436, 1 nM | 94.5% and 114%
MDA-MB-436, 100 nM | 85.8% and 110%
MDA-MB-436, 1000 nM | 98.5% and 108%
MDA-MB-453 [8], 3 nM | 90.5% and 94.7%
MDA-MB-453 [8], 10 nM | 95.2% and 82%
MDA-MB-468, 1 nM | 104% and 89.3%
MDA-MB-468, 100 nM | 104% and 95.4%
MDA-MB-468, 1000 nM | 100%
MFM-223, 1 nM | 101% and 105%
MFM-223, 100 nM | 91.4% and 96.6%
MFM-223, 1000 nM | 62.7% and 68.1%
SK-BR-3, 1 nM | 94.8% and 101%
SK-BR-3, 100 nM | 98.3% and 96.8%
SK-BR-3, 1000 nM | 90.2% and 90.4%

CC[C@@]1(O)C(=O)OCc2c1cc1n(c2=O)Cc2cc3c(CN(C)C)c(O)ccc3nc2-1 [Topotecan]
Conditions | drug sensitivity score | normalised viability [%]
CAL-51 [9] | 19.5 | –
CAL-120 [1] | – | 76.4
DU-4475 [2] | – | 92.6
HCC1143 [10] | 0 | –
MDA-MB-453 [3] | – | 101
MDA-MB-453 [11] | 0 | –

normalised viability [%]
Conditions | 0.3 nM | 1 nM | 3 nM | 10 nM | 100 nM | 1000 nM
BT-474 | – | 127 | – | – | 112 | 77.9
BT-549 | – | 85.9 | – | – | 75.3 | 62.9
CAL-51 [5] | 99 | – | 96.5 | 96.8 | – | –
CAL-85-1 | 93.2 | – | 85.2 | 96.9 | – | –
CAL-120 [4] | – | 86.2 | – | – | 54.8 | 32.1
CAL-148 | 84.5 | – | 111 | 96.5 | – | –
DU-4475 [6] | 88.4 | – | 88.4 | 78.5 | – | –
HCC1143 [7] | – | 79.9 | – | – | 79.1 | 41.9
HCC1599 | – | 91.5 | – | – | 82.3 | 64
HCC1937 | – | 96.9 | – | – | 40.6 | 26.2
HDQ-P1 | 112 | – | 105 | 105 | – | –
Hs578T | – | 132 | – | – | 102 | 69.4
MDA-MB-231 | – | 97 | – | – | 80.5 | 59.8
MDA-MB-436 | – | 110 | – | – | 75.5 | 44.6
MDA-MB-453 [8] | 103 | – | 107 | 102 | – | –
MDA-MB-468 | – | 108 | – | – | 45.6 | 12.8
MFM-223 | – | 105 | – | – | 88.2 | 53.5
SK-BR-3 | – | 105 | – | – | 48.7 | 24.8
